From paper PMC4552745, “Novel Gallate Triphenylphosphonium Derivatives with Potent Antichagasic Activity” (PLoS ONE, 2015)

Key:
[1] = tested on: T. cruzi trypomastigotes (Y strain); format: cell-based; settings: for markers of cell death (phosphatidylserine exposure and propidium iodide permeabilization): 1 μM, 24 hours; for number of viable cells (without annexin-V or PI positivity): 24 hours, 0.1, 0.5 or 1 μM, Fig 2B
Description: For these assays, 10^7 trypomastigotes (Y strain) were exposed to […] for 24 h in RPMI at 37°C and 5% CO2. The cells were then washed in phosphate-buffered saline (PBS), resuspended, and incubated with propidium iodide (PI) and Annexin-V labeled with Alexa Fluor 488. The incubation was performed using Alexa Fluor 488 Annexin V/Dead Cell Apoptosis Kit (Molecular Probes, USA) following the manufacturer’s instructions. The fluorescence of the samples was measured using a FACSAria-III flow cytometer (BD biosciences, USA) with 530/30 and 630/22 filters to detect Annexin-V and PI, respectively. For each sample, 5,000 events were recorded, and the data were analyzed using FACSDiva 6.1 software.

mouse = tested on: mouse; design: method as in PMID 24568614; settings: 15 mg/kg; cited from earlier work
[2] = tested on: T. cruzi trypomastigotes (Y strain) mitochondrial permeability transition pore; test: Mitochondrial permeability transition pore opening (calcein AM / CoCl2); format: cell-based, Trypanosoma cruzi; settings: 1 hour, Fig 6B
Description: The opening of mitochondrial permeability transition pores was assessed using the calcein AM probe, adapting the method described by Huang et al (2014). Calcein-AM is a lipophilic probe that can enter the cell, including the mitochondria, and is then cleaved by cellular esterases, releasing the fluorescent probe calcein. T. cruzi trypomastigotes (Y strain, 5 x 10^6 parasites/mL) were stained with 100 nM calcein AM (Molecular Probes, Applied Biosytems, USA) and incubated at 37°C for 15 min in the presence of […] of CoCl2 to quench the cytosolic fluorescence of calcein. Then, the parasites were washed with PBS and resuspended in RPMI medium, without phenol red, supplemented with 0.3 mM of Ca^+2. The parasites were then seeded in 24-well plates and exposed to the different compounds (TPP^+-C8, TPP^+-C10, TPP^+-C11, and TPP^+-C12) at 1 or 5 μM for 1 hour. As a positive control, one group was exposed to ionomycin (0.5 μM). The samples were measured using a FACS Aria III flow cytometer (BD Biosciences, USA) with the 494/517 filter to detect calcein fluorescence. For every measurement, 5,000 events were recorded. The raw flow cytometry data were analyzed using FACSDiva 6.1 software (BD Biosciences). The results were analyzed using the median fluorescence intensity (MFI) from the frequency histograms. Thus, we used the median intensity of the control group (parasites incubated with calcein AM and CoCl2) to establish 100% of mitochondrial fluorescence, thereby establishing percent ratios between the treatment groups and the control.

[3] = tested on: T. cruzi in infected RAW 264.7 cells; test: Parasite DNA load by real-time PCR in infected RAW cells; format: cell-based, Trypanosoma cruzi; settings: for parasite's DNA load: 1 μM, qPCR, 48 hours; for parasite load (qPCR): infected RAW cells, 48 hours after treatment, Fig 4
From the text: DNA from infected RAW cells (murine macrophages, ATCC number: TIB-71) was isolated using Wizard Genomic DNA Purification Kit (Promega, USA) following the manufacturer’s instructions. DNA was quantified through […] absorbance measurements using a Varioskan spectrophotometer (Thermo Scientific, USA). To evaluate the parasite DNA load, we used a TaqMan-Duplex system, as described previously. To amplify an 84-bp T. cruzi satellite DNA sequence, we used the following primers: TcSt 4-Fw (5’-[…]-3’) and TcSt 1-Rev (5’-[…]-3’) and the TcSt-1 probe (5’-FAM-[…]-BHQ-1-3’). As an endogenous control, we used the Mus-F (5’-[…]-3’) and Mus-R (5’-[…]-3’) primers coupled with the MM-1 probe (5’-HEX-AAAGCATCTGCCTCCG-BHQ-1-3’) to amplify a 67-bp Mus musculus GAPDH sequence. The primers and probes were designed using Primer Express 3.0 Software (Applied Biosystems, USA) and manufactured by Integrated DNA Technologies (Coralville, IA, USA). The PCR reactions were performed using an ABI7300 real-time thermocycler (Applied Biosystems, USA). […] ROX was used as a reference dye. For both TaqMan assays, the thermal cycle consisted of a polymerase activation step carried out at 95°C for 10 min (one cycle) and a two-step amplification phase: 95°C for 15 s and 55°C for 45 s (40 cycles). Fluorescence was measured at the end of each amplification cycle. The data were analyzed using 7300 System SDS software with the SDS relative quantitation plug-in (Applied Biosystems, USA). All of the data were analyzed by the 2^-∆∆CT method, comparing the CTs of the T. cruzi gene versus that of GAPDH as well as comparing all of the samples with the controls. The parasite load is expressed as the relative DNA load compared with the controls.

Structure (SMILES) | markers of cell death (phosphatidylserine exposure and propidium iodide permeabilization) [1] | number of viable cells (without annexin-V or PI positivity) [1] | safety in mouse models (mouse) | mitochondrial calcein fluorescence (median fluorescence intensity) ([2]; 5 μM) | parasite's DNA load [3] | parasite load (qPCR) [3] | mitochondrial calcein fluorescence (median fluorescence intensity) ([2]; 1 μM)
O=C(OCCCCCCCCCC[P+](c1ccccc1)(c1ccccc1)c1ccccc1)c1cc(O)c(O)c(O)c1.[Br-] [TPP^+-C10, triphenyl(10-((3,4,5-trihydroxybenzoyl)oxy)-decyl) phosphonium bromide] | induced markers of cell death | significant decrease in the number of viable cells at concentrations of 0.5 and 1 μM | safe | 22 % of the control | 10 % of control measurements | reduced the parasite load in a concentration-dependent manner | –
O=C(OCCCCCCCCCCCC[P+](c1ccccc1)(c1ccccc1)c1ccccc1)c1cc(O)c(O)c(O)c1.[Br-] [TPP^+-C12, triphenyl(12-((3,4,5-trihydroxybenzoyl)oxy)-dodecyl) phosphonium bromide] | induced markers of cell death | significant decrease in the number of viable cells at concentrations of 0.5 and 1 μM | – | 20 % of the control | 13 % of control measurements | reduced the parasite load in a concentration-dependent manner | 29 % of the control
